From patent US20100255054A1, “PHARMACEUTICAL COMPOSITION FOR TREATMENT AND PREVENTION OF RESTENOSIS” (priority 2006, published 2010)

Tests used:
[1] = tested on: cyclin dependent kinase (CDK); test: Western blot of CDK in vascular smooth muscle cells; type: cell-based, rat; settings: 0.5 μM, FIG. 4B
Protocol: (§1) For vascular smooth muscle cell cultivation, vascular smooth muscle cells were isolated from rat aorta and they were primarily cultured. The vascular smooth muscle cells were cultured and grown in a culture solution containing 20% fetal bovine serum (FBS) at 37° C. under 5% CO2. The cells obtained in this process were transferred to a new culture plate for experiments. The cells used in the experiments were initial cells which had been subcultured 4 to 7 times. In order to activate NQO1, the vascular smooth muscle cells, when the cell mass reached 80 to 90%, were cultured in a medium containing 0.5% fetal bovine serum for 24 hours to keep the cells in the resting state. Such cells were treated with the compound of Example 1 (hereinafter, referred to as Compound 1).
(§2) The vascular smooth muscle cells collected after reacting with Compound 1 were lysed in RIPA buffer (50 mM Tris-HCl, 150 mM NaCl, 5 mM EDTA, 1% NP-40, 1 mM PMSF, 1 mM […], and 1 mg/ml protease inhibitor) to isolate whole proteins. The isolated proteins of each sample were quantified. 25 μg of the proteins were mixed with a sample buffer and boiled for 5 minutes. The boiled proteins were cooled and subjected to electrophoresis on a sodium dodecyl sulfate polyacrylamide gel, thereby separating the proteins by their sizes. […]

AMPK = test: Western blot of phosphorylated AMPK in vascular smooth muscle cells; type: cell-based, rat; settings: 0.5 μM
Protocol: as §1
The vascular smooth muscle cells collected after reacting with Compound 1 were lysed in RIPA buffer (50 mM Tris-HCl, 150 mM NaCl, 5 mM EDTA, 1% NP-40, 1 mM PMSF, 1 mM […], and 1 mg/ml protease inhibitor) to isolate whole proteins. The isolated proteins of each sample were quantified. 25 μg of the proteins were mixed with a sample buffer and boiled for 5 minutes. The boiled proteins were cooled and subjected to electrophoresis on a sodium dodecyl sulfate polyacrylamide gel, thereby separating the proteins by their sizes. These proteins were again transferred to PVDF membrane and immunoreacted with antibodies against pAMPK, pACC, p53, p21, CDK and pRb to confirm the protein expression. In addition, in order to verify whether an equal amount of protein was used, the proteins were reacted with anti-β-actin.
Primary cultures of vascular smooth muscle cells were kept in the resting state and then treated with 0.5 μM of Compound 1. After reacting them for a predetermined period of time, the cells were collected to perform western blot. Quantification was carried out using antibodies specific for phosphorylated AMPK and Acetyl-CoA carboxylase (ACC), and for β-actin. The results were confirmed through three or more repeating experiments.

cyclin E = test: Western blot of cyclin E expression in vascular smooth muscle cells; type: cell-based, rat; settings: 0.5 μM, compared with the control group, FIG. 4B
Protocol: as §1, §2

p21 = test: Western blot of p21 expression in vascular smooth muscle cells; type: cell-based, rat; settings: 0.5 μM, FIG. 4A
Protocol: as §1, §2

[2] = tested on: Acetyl-CoA carboxylase (ACC); test: Western blot of phosphorylated ACC in vascular smooth muscle cells; type: cell-based, rat; settings: 0.5 μM, compared with the control group, FIG. 3
Protocol: as §1
as §2, with “minutes.” for “minutes. The boiled proteins were cooled and subjected to electrophoresis on a sodium dodecyl sulfate polyacrylamide gel, thereby separating the proteins by their sizes.”
Primary cultures of vascular smooth muscle cells were kept in the resting state and then treated with 0.5 μM of Compound 1. […] Quantification was carried out using antibodies specific for phosphorylated AMPK and Acetyl-CoA carboxylase (ACC), and for β-actin. […]

rats = test: Lipogenesis in vessels (Oil Red O staining of aortic valve and abdominal aorta); type: in vivo, rat
Source text: The animals were killed to isolate their hearts and abdominal aortas, and they were fixed in 4% formalin, respectively. The fixed heart tissue was immersed in an isotonic sucrose solution, and then stored in a freezer by embedding in an OCT compound. Meanwhile, the fixed abdominal aorta was incised lengthwise and prepared such that the internal vessel was exposed. The frozen heart tissue was sectioned into a thickness of 20 μm and attached onto a coating slide, while the abdominal aorta was immersed in an Oil Red O solution to perform Oil Red O staining, and they were observed.
Rats administered with 25 mg/kg and 50 mg/kg of Compound 1, respectively, for 4 weeks had been killed, and their hearts and abdominal aortas were extracted to prepare frozen sections. The prepared sections were stained with Oil Red O, and a degree of lipid accumulation on the inner vessel wall and aortic valve was compared/observed.
A (upper part of FIG. 7) is an aortic valve and B (bottom part of FIG. 7) is an abdominal aorta. The experiments were repeated three times to confirm the results.

[3] = tested on: vascular smooth muscle cells; test: Cell cycle analysis by FACS (PI staining); type: cell-based, rat; settings: 0.5 μM Compound 1 + PDGF and insulin, 48 hours (PDGF and insulin only: 57%), FIG. 5C
Protocol: as §1
FACS was used for cell cycle analysis. The vascular smooth muscle cells incubated in a medium containing 0.5% fetal bovine serum for 24 hours were pretreated with Compound 1 for 2 hours. The cells were treated with PDGF and insulin to induce cell proliferation and reacted for 48 hours. Thereafter, the cells were collected and passed through fixation process, followed by nuclear staining with propidium iodide (PI). Then, the cell cycle was analyzed using FACS.
Primary cultures of vascular smooth muscle cells were treated with 0.5 μM of Compound 1, followed by reacting with PDGF and insulin for 48 hours. […]

NQO1 = test: RT-PCR of NQO1 expression in vascular smooth muscle cells; type: cell-based, rat; settings: 0.5 μM, compared with the control group, FIG. 2
Protocol: A study was conducted to investigate effects of Compound 1 on the expression of NQ01 as in the following. Primary cultures of vascular smooth muscle cells were kept in the resting state and then treated with 0.5 μM of Compound 1. After reacting them for a predetermined period of time, RNA was extracted from the cells using trizol. Thereafter, DNA was amplified using NQO1 primer and then subjected to electrophoresis to confirm the expression level of NQO1.

cyclin D = test: Western blot of cyclin D expression in vascular smooth muscle cells; type: cell-based, rat; settings: 0.5 μM, compared with the control group, FIG. 4B
Protocol: as §1, §2

SD rats = test: Intimal hyperplasia after balloon angioplasty (H&E staining); type: in vivo, rat; settings: 100 mg/kg in diet
Protocol: SD rats were used for performing balloon angioplasty. Animals were housed in a breeding room maintained at a constant temperature of 22±2° C. and a 12-h light/dark (UD) cycle. The animals were divided into two groups, i.e., a control group with administration of general diet and an experiment group with administration of 100 mg/kg of Compound 1, having 4 animals in each group. The 4 animals in each group were raised in separate cages for each animal for 4 weeks, during which experiments were carried out. The animals were raised for 2 weeks before performing balloon angioplasty and 2 weeks after performing balloon angioplasty while continuing the dietary intake of the general diet and Compound 1 diet. Thereafter, their aortas were isolated to confirm hyoerplasia by means of H&E (hematoxylin and eosin) staining.
14 days after performing balloon angioplasty, the carotid artery was extracted from a rat. After staining the carotid artery by H&E staining, vessel intimal hyperplasia was observed. The results are presented in FIG. 6. a is a control group, b is a vessel intima after performing balloon angioplasty in the general dietary group, c is a vessel intima after performing balloon angioplasty in the 100 mg/kg of Compound 1 administration group, and d is a control group in the 100 mg/kg of Compound 1 administration group, without performing balloon angioplasty.

p53 = test: Western blot of p53 expression in vascular smooth muscle cells; type: cell-based, rat; settings: 0.5 μM, FIG. 4A
Protocol: as §1, §2

[4] = tested on: vascular smooth muscle cells; test: Vascular smooth muscle cell proliferation (PDGF-induced, WST cell counting kit); type: cell-based, rat
Protocol: as §1, with “Such cells were treated with the compound of Example 1 (hereinafter, referred to as Compound 1).” left out
Primary cultures of vascular smooth muscle cells were seeded onto 96-well plates, cultured to reach cell mass of 70%, and transferred and again cultured in a medium containing 0.5% fetal bovine serum for 24 hours. […] After further reacting for 4 hours, absorbencies were measured at 450 nm using an ELISA reader to examine the cell proliferation rate.
In order to determine the effects of Compound 1 on vascular smooth muscle cell proliferation, the cells cultured in a 96-well plate were kept in the resting state, followed by pre-treating them with Compound 1 by varying the concentration, and by reacting them with PDGF for 48 hours. The number of living cells was counted using a WST cell counting kit. […]

cyclin B = test: Western blot of cyclin B expression in vascular smooth muscle cells; type: cell-based, rat; settings: 0.5 μM, compared with the control group, FIG. 4B
Protocol: as §1, §2

## CC1(C)CCC2=C(O1)c1ccccc1C(=O)C2=O [Compound 1, β-lapachone]
[1]
  CDK activation: activated through phosphorylation
AMPK
  time after treatment at which phosphorylated AMPK could be observed: 1 h
  time for which phosphorylated AMPK lasted: 6 h
AMPK; compared with the control group, FIG. 3
  AMPK phosphorylation: increased
Cyclin E
  expression level of cyclin E: significantly low
p21
  expression of p21: increased in a great amount
[2]
  ACC phosphorylation: decreased
rats; 25 mg/kg and 50 mg/kg for 4 weeks, Oil Red O, FIG. 7
  lipogenesis in aortic valve and abdominal aorta: inhibited
rats; about 50 mg/kg for 4 weeks
  blood flow level in the heart and abdominal aorta: approximately the same as that of the normal rats
[3]
  G1 phase (percentage of cells): 62%
NQO1
  expression level of NQO1: significantly higher
Cyclin D
  expression level of cyclin D: significantly low
SD rats; 14 days after balloon angioplasty (general dietary group: 2.5)
  intima/media ratio: 1
SD rats; 14 days after balloon angioplasty, FIG. 6 c
  intimal hyperplasia in the vessel: low rate of intimal hyperplasia
p53
  expression level of p53: did not increase largely
[4]; Compound 1 pre-treatment at varying concentration, PDGF 48 hours
  concentration dependence of the reduction in the number of vascular smooth muscle cells: concentration-dependent
[4]; PDGF + Compound 1 compared with PDGF only, 48 hours, FIG. 1
  number of vascular smooth muscle cells (living cells): significantly low
Cyclin B
  expression level of cyclin B: significantly low
